Laboratory results: PubChem BioAssay AID1918932 (Molecular Pharmacology Branch, DTP, NCI, 2023)

System: 171881-019-R-J1-PDC complex spheroid viability
Test: Anticancer human tumor 171881-019-R-J1-PDC patient-derived invasive breast carcinoma cell line growth inhibition
Settings: for IC50: curve of first compound; for viability, T/C: stronger effect = lower value
Summary of the method: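 Drug combinations with the LSD1 inhibitor iadademstat tested on tumor cells co-cultured as spheroids with endothelial cells and mesenchymal stem cells. Concentrations descended in half-log increments from clinical Cmax or 10 microM.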

[1] = second compound 0.1 µM, first compound 0.00949 µM
[2] = second compound 0.1 µM, first compound 0.03 µM
[3] = second compound 0.1 µM, first compound 0.0949 µM
[4] = second compound 0.1 µM, first compound 0.3 µM
[5] = second compound 0.1 µM, first compound 0.949 µM
[6] = second compound 0.1 µM, first compound 3 µM
[7] = second compound 0.316 µM, first compound 0.00949 µM
[8] = second compound 0.316 µM, first compound 0.03 µM
[9] = second compound 0.316 µM, first compound 0.0949 µM
[10] = second compound 0.316 µM, first compound 0.3 µM
[11] = second compound 0.316 µM, first compound 0.949 µM
[12] = second compound 0.316 µM, first compound 3 µM
[13] = second compound 1 µM, first compound 0.00949 µM
[14] = second compound 1 µM, first compound 0.03 µM
[15] = second compound 1 µM, first compound 0.0949 µM
[16] = second compound 1 µM, first compound 0.3 µM
[17] = second compound 1 µM, first compound 0.949 µM
[18] = second compound 1 µM, first compound 3 µM
[19] = second compound 3.16 µM, first compound 0.00949 µM
[20] = second compound 3.16 µM, first compound 0.03 µM
[21] = second compound 3.16 µM, first compound 0.0949 µM
[22] = second compound 3.16 µM, first compound 0.3 µM
[23] = second compound 3.16 µM, first compound 0.949 µM
[24] = second compound 3.16 µM, first compound 3 µM
[25] = second compound 10 µM, first compound 0.00949 µM
[26] = second compound 10 µM, first compound 0.03 µM
[27] = second compound 10 µM, first compound 0.0949 µM
[28] = second compound 10 µM, first compound 0.3 µM
[29] = second compound 10 µM, first compound 0.949 µM
[30] = second compound 10 µM, first compound 3 µM
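Further: spheroids exposed to agents for 7 days after 3 days growth.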

SMILES	IC50 (second compound 0.1 µM) [nM]	IC50 (second compound 0.316 µM) [nM]	IC50 (second compound 1 µM) [nM]	IC50 (second compound 3.16 µM) [nM]	IC50 (second compound 10 µM) [nM]	viability, T/C [1] [%]	viability, T/C [2] [%]	viability, T/C [3] [%]	viability, T/C [4] [%]	viability, T/C [5] [%]	viability, T/C [6] [%]	viability, T/C [7] [%]	viability, T/C [8] [%]	viability, T/C [9] [%]	viability, T/C [10] [%]	viability, T/C [11] [%]	viability, T/C [12] [%]	viability, T/C [13] [%]	viability, T/C [14] [%]	viability, T/C [15] [%]	also measured
NS(=O)(=O)OCC1CC(n2ccc3c(NC4CCc5ccccc54)ncnc32)CC1O (stereo not given) + NC1CC1c1ccc(-c2cccc(O)c2)cc1	10.3	11.3	10.1	12.8	< 9.49	51.1	36.4	26.7	27.4	27.1	23.3	52.9	36.4	31.3	28.1	31.8	21.4	51.3	27.4	27.8	viability, T/C [16]: 30%; viability, T/C [17]: 27.5%; viability, T/C [18]: 21.9%; viability, T/C [19]: 56.5%; viability, T/C [20]: 31.2%; viability, T/C [21]: 26%; viability, T/C [22]: 24.1%; viability, T/C [23]: 26.9%; viability, T/C [24]: 21.1%; viability, T/C [25]: 45.1%; viability, T/C [26]: 30.6%; viability, T/C [27]: 27.1%; viability, T/C [28]: 27.6%; viability, T/C [29]: 25.4%; viability, T/C [30]: 19.5%
Nc1ccccc1NC(=O)c1ccc(CNC(=O)OCc2cccnc2)cc1 + NC1CC1c1ccc(-c2cccc(O)c2)cc1	525	530	520	481	441	101	96.2	107	89.4	8.16	0.69	104	102	109	90.8	8.21	0.84	101	103	107	viability, T/C [16]: 88.6%; viability, T/C [17]: 7.91%; viability, T/C [18]: 0.77%; viability, T/C [19]: 100%; viability, T/C [20]: 102%; viability, T/C [21]: 90.8%; viability, T/C [22]: 80.6%; viability, T/C [23]: 6.04%; viability, T/C [24]: 0.79%; viability, T/C [25]: 88%; viability, T/C [26]: 82.6%; viability, T/C [27]: 82.3%; viability, T/C [28]: 70.9%; viability, T/C [29]: 8.68%; viability, T/C [30]: 0.61%
O=C(C=Cc1cccc(S(=O)(=O)Nc2ccccc2)c1)NO + NC1CC1c1ccc(-c2cccc(O)c2)cc1	382	404	419	389	309	99.8	104	102	63.1	1.03	0.11	100	98.5	100	67	1.15	0.13	104	103	103	viability, T/C [16]: 69.9%; viability, T/C [17]: 1.32%; viability, T/C [18]: 0.23%; viability, T/C [19]: 92%; viability, T/C [20]: 89.5%; viability, T/C [21]: 97.2%; viability, T/C [22]: 64.3%; viability, T/C [23]: 1.09%; viability, T/C [24]: 0.11%; viability, T/C [25]: 77%; viability, T/C [26]: 73.5%; viability, T/C [27]: 85.6%; viability, T/C [28]: 51.4%; viability, T/C [29]: 0.76%; viability, T/C [30]: 0.14%
